Reference: patent US20230233550A1, “TREATMENT FOR THE INFLAMMATORY BOWEL DISEASE” (priority 2020, published 2023)

What was measured:
DSS-induced colitis = test: DSS-induced colitis; type: in vivo, male C57 mice
Description: The 8 to 10 week old male C57 mice (18-20 g) were used in the study. Animals were divided into two experimental groups: vehicle control and compound of formula (Ia). Same day animals were provided 2% dextran sulfate sodium (DSS) solution in water for 7 days. Animals were treated with vehicle or compound of formula (Ia) (15 mg/kg) by oral route daily for 10 days. Body weight was recorded daily for 10 days. Disease activity score was evaluated based on stool consistency and rectal bleeding (Kim JJ et al., 2012). Relative colon length was measured. Colon myeloperoxidase (MPO) activity was estimated (Kim JJ et al., 2012).

TNBS-induced colitis = test: TNBS-induced colitis; type: in vivo, Female BalbC mice; conditions: 15 mg/kg orally, Balb/c mice
Description: Female BalbC mice (6-8 weeks old) were used in the study. Mice were sensitized by topical application of 1% trinitrobenzene sulfonic acid (TNBS) in acetone/olive oil solution (4:1). After 7 days of sensitization, mice were challenged with 2.5% TNBS solution by intra-rectal route administered 5 mL/kg of body weight under anesthesia. Mice were monitored for development of disease over 5 days. TNBS-treated mice were randomly divided into 2 groups: TNBS-control (TNBS) and TNBS + compound of formula (Ia) (15 mg/kg, orally). Treatment was started on one day before TNBS challenge (2.5 %) and continued up to day 5 after TNBS challenge (2.5%). Animals were monitored for body weight change daily for 5 days. Intestinal permeability was estimated by Evans blue method (Han ED et al., 2002).

O=C(O)CNC(=O)c1c(O)c2ccccc2n(OCC2CC2)c1=O [Compound of formula (Ia), Desidustat]
reduction of colon MPO against vehicle control (DSS-induced colitis; 15 mg/kg oral daily for 10 days, colon myeloperoxidase activity): 74.9 ± 5.0% | decrease in disease activity score when compared with vehicle control (DSS-induced colitis; 15 mg/kg oral daily for 10 days, score based on stool consistency and rectal bleeding): 31.8 ± 9.8% | increase in body weight against vehicle control (DSS-induced colitis; 15 mg/kg oral daily, after ten days of treatment, 2% DSS for 7 days): 49.0 ± 12.9% | weight gain when compared with vehicle control (TNBS-induced colitis; 5th day after TNBS challenge): 17.4 ± 1.4% | decrease in intestinal permeability when compared against vehicle control (TNBS-induced colitis; Evans blue method): 51.7 ± 4.4%
